Laboratory results published in ChEMBL document CHEMBL1123411, “Ribose-modified adenosine analogues as adenosine receptor agonists” (J Med Chem, 1986).

How the values were obtained:
Mus musculus [1] = organism: Mus musculus; test: CNS activity measured using screen test failure; format: functional
Mus musculus [2] = organism: Mus musculus; test: Dose required to inhibit mouse locomotor activity by 60%; format: functional
Adenosine receptor A1 = target: T1, Adenosine receptor A1 (Rattus norvegicus, UniProt P25099); test: Binding affinity for adenosine A1 receptor in rat brain membranes using [3H]CHA as radioligand; format: cell membranes
T1 sequence (P25099 whole entry): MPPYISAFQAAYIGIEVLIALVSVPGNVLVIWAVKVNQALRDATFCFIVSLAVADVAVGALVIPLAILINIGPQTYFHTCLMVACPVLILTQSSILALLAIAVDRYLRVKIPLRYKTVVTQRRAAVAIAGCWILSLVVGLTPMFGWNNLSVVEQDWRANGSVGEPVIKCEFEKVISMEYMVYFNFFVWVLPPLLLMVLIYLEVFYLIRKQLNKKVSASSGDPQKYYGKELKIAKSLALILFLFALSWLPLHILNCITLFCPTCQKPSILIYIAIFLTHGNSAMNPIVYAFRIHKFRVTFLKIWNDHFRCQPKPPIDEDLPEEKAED

Rattus norvegicus [3] = organism: Rattus norvegicus; test: Cardiovascular activity (as 20% decrease in rate).; format: functional
Adenosine A2 receptor = Adenosine A2 receptor (Rattus norvegicus, UniProt P29276+P30543)
Description: Binding affinity for adenosine A2 receptor in rat striatal membranes using [3H]NECA as radioligand

Rattus norvegicus [4] = organism: Rattus norvegicus; test: Cardiovascular activity (as 20% decrease in blood pressure).; format: functional
Rattus norvegicus [5] = organism: Rattus norvegicus; test: Compound was evaluated for Cardiovascular activity (as 20% decrease in rate) in rats; format: functional; conditions: Heart

| SMILES | Ki (Adenosine receptor A1) | Ki (Adenosine A2 receptor) | LAD (Mus musculus [1]) | LAD (Mus musculus [2]) | ED20 (Rattus norvegicus [3]) | ED20 (Rattus norvegicus [4]) | ED20 (Rattus norvegicus [5]) |
| --- | --- | --- | --- | --- | --- | --- | --- |
| C[C@H](Cc1ccccc1)Nc1ncnc2c1ncn2C(CO)OC(O)CO (stereo not given in full) | > 10 µM | > 10 µM | >100 mg/kg | >100 mg/kg | > 10 mg/kg | 0.9 mg/kg | – |
| C[C@H](Cc1ccccc1)Nc1[nH]cnc2ncnc1-2 | 9.6 µM | 39 µM | 100 mg/kg | 100 mg/kg | > 10 mg/kg | 8 mg/kg | – |
| C[C@H](Cc1ccccc1)Nc1ncnc2c1ncn2C[C@H](O)CO | > 10 µM | > 10 µM | >100 mg/kg | >100 mg/kg | – | – | – |
| C[C@H](Cc1ccccc1)Nc1ncnc2c1ncn2[C@@H]1O[C@@H](CO)[C@@H](O)[C@H]1O | – | – | >100 mg/kg | >100 mg/kg | > 10 mg/kg | > 10 mg/kg | – |
| C[C@H](Cc1ccccc1)Nc1ncnc2c1ncn2[C@H]1C[C@H](O)[C@@H](CO)O1 | 1.9 µM | – | >30 mg/kg | >30 mg/kg | – | – | – |
| C[C@H](Cc1ccccc1)Nc1ncnc2c1ncn2[C@@H]1O[C@H](CO)C[C@H]1O | 0.029 µM | 6.9 µM | 100 mg/kg | 100 mg/kg | 0.4 mg/kg | 0.8 mg/kg | – |
| C[C@H](Cc1ccccc1)Nc1ncnc2c1ncn2C[C@@H](O)CO | > 10 µM | > 10 µM | >100 mg/kg | >100 mg/kg | > 10 mg/kg | > 10 mg/kg | – |
| C[C@H](Cc1ccccc1)Nc1ncnc2c1ncn2C1CCCCO1 (stereo not given in full) | 1.2 µM | 38 µM | >100 mg/kg | 100 mg/kg | – | – | – |
| C[C@H](Cc1ccccc1)Nc1ncnc2c1ncn2C1CCCC(O)C1O (stereo not given in full) | 15 µM | > 10 µM | >100 mg/kg | >100 mg/kg | > 3 mg/kg | > 3 mg/kg | – |
| C[C@H](Cc1ccccc1)Nc1ncnc2c1ncn2CC(O)C(O)C(O)CO (stereo not given in full) | > 2.2 µM | > 100 µM | >100 mg/kg | >100 mg/kg | > 10 mg/kg | 10 mg/kg | – |
| C[C@H](Cc1ccccc1)Nc1ncnc2c1ncn2C1O[C@H](CCl)[C@@H](O)[C@H]1O (stereo not given in full) | 0.0016 µM | 1.9 µM | 100 mg/kg | 10 mg/kg | 0.08 mg/kg | 0.1 mg/kg | – |
| C[C@H](Cc1ccccc1)Nc1ncnc2c1ncn2[C@@H]1O[C@H](CO)[C@@H](O)[C@H]1O [(R)-PIA] | – | – | 3 mg/kg | 1 mg/kg | – | – | 0.006 mg/kg |

Further lines, with some results ahead:

| Ki (Adenosine receptor A1) | Ki (Adenosine A2 receptor) | SMILES | LAD (Mus musculus [1]) | LAD (Mus musculus [2]) | ED20 (Rattus norvegicus [3]) | ED20 (Rattus norvegicus [4]) | ED20 (Rattus norvegicus [5]) |
| --- | --- | --- | --- | --- | --- | --- | --- |
| 68 µM | – | C[C@H](Cc1ccccc1)Nc1ncnc2c1ncn2COCCO | >30 mg/kg | >30 mg/kg | – | – | – |
| 1.5 µM | 8.2 µM | C[C@H](Cc1ccccc1)Nc1ncnc2c1ncn2C1CCCO1 (stereo not given in full) | >100 mg/kg | >100 mg/kg | > 3 mg/kg | > 3 mg/kg | – |
| 5.7 µM | > 100 µM | C[C@H](Cc1ccccc1)Nc1ncnc2c1ncn2C1OCC(O)C(O)C1O (stereo not given in full) | – | – | – | – | – |
| 0.025 µM | 3.3 µM | C[C@H](Cc1ccccc1)Nc1ncnc2c1ncn2C1O[C@H](C)[C@@H](O)[C@H]1O (stereo not given in full) | 100 mg/kg | 30 mg/kg | > 0.3 mg/kg | 0.05 mg/kg | – |
| > 10 µM | > 50 µM | C[C@H](Cc1ccccc1)Nc1ncnc2c1ncn2C1OC[C@](O)(CO)[C@H]1O (stereo not given in full) | – | – | – | – | – |
| 0.029 µM | 56 µM | CSC[C@H]1OC(n2cnc3c(N[C@H](C)Cc4ccccc4)ncnc32)[C@H](O)[C@@H]1O (stereo not given in full) | >100 mg/kg | >100 mg/kg | 3 mg/kg | 0.023 mg/kg | – |
